In patent publication US11254686B1 (Corvus Pharmaceuticals, Inc., priority 2017, dated 2022):
Values joined by “and” are separate entries in the source; they are usually repeats but may differ in a detail not shown here. Identical values can stand only once.

Columns and labels:
Type in all cases: biochemical
adenosine A2A receptor = adenosine A2A receptor (Homo sapiens (Human), UniProt P29274); assay: Adenosine receptor activity assay (Table 1), A2A activity; conditions: cAMP; read-out: Ave A2A cAMP IC50
Chain of adenosine A2A receptor (P29274 whole entry): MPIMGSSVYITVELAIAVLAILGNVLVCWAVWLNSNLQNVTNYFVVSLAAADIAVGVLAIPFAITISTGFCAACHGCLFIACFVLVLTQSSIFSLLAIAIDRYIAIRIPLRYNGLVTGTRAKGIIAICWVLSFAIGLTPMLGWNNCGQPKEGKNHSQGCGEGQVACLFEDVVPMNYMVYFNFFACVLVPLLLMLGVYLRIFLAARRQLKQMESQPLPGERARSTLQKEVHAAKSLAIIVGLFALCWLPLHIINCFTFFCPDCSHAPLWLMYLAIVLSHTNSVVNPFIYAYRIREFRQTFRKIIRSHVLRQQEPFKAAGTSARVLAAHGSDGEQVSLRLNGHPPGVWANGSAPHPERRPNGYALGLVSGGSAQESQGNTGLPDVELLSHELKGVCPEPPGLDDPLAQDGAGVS

adenosine A1 receptor = adenosine A1 receptor (Homo sapiens (Human), UniProt P30542); assay: Adenosine receptor activity assay (Table 1), A1 cAMP
Chain of adenosine A1 receptor (P30542 whole entry): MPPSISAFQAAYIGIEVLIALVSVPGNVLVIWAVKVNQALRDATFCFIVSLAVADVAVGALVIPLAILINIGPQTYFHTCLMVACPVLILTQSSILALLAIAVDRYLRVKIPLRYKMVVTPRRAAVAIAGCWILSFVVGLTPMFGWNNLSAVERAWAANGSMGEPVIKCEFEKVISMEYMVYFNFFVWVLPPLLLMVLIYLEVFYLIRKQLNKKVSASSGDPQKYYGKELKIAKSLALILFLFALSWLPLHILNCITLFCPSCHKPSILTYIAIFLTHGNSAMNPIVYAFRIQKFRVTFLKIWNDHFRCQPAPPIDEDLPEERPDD

adenosine A2B receptor = adenosine A2B receptor (Homo sapiens (Human), UniProt P29275); assay: Adenosine receptor activity assay (Table 1), A2B activity; conditions: for Ratio: A2A activity to the A2B activity, A2A/A2B; for IC50: cAMP, read-out: Ave A2B cAMP IC50
Chain of adenosine A2B receptor (P29275 whole entry): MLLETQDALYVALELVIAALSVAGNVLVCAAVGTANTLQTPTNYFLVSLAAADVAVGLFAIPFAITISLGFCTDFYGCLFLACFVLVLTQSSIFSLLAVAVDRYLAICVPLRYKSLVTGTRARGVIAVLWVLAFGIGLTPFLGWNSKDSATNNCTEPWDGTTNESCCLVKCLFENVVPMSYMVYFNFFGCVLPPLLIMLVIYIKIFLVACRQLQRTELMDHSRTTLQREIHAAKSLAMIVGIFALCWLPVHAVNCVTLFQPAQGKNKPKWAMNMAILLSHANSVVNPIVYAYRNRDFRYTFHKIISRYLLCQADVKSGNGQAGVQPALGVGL

adenosine A3 receptor = adenosine A3 receptor (Homo sapiens (Human), UniProt P0DMS8); assay: Adenosine receptor activity assay (Table 1), A3 cAMP
Chain of adenosine A3 receptor (P0DMS8 whole entry): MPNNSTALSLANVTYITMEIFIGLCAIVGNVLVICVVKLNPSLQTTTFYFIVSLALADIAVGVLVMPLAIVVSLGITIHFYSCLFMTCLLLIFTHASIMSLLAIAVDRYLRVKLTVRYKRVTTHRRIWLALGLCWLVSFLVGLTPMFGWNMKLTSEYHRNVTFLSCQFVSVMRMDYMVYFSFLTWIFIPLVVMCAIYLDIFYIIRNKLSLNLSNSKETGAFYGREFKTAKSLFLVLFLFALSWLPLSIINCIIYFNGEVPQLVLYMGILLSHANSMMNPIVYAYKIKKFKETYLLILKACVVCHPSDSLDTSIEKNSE

Row | Structure (SMILES) | IC50 (adenosine A2A receptor) [nM] | IC50 (adenosine A1 receptor) [nM] | Ratio (adenosine A2B receptor) | IC50 (adenosine A2B receptor) [nM] | IC50 (adenosine A3 receptor) [nM]
1 | CCC(CC)NC(=O)NC1CN(C(=O)c2nc(N[C@@H](C)c3cncc(F)c3)nc3ccsc23)C1 [Example Z630, (S)-1-(1-(2-((1-(5-Fluoropyridin-3-yl)ethyl)amino)thieno[3,2-d]pyrimidine-4-carbonyl)azetidin-3-yl)-3-(pentan-3-yl)urea] | < 10 | > 500 | 0.33 | 10 to 50 | 10 to 50
2 | C[C@H](Nc1nc(C(=O)N2CC(NC(=O)C3COC3)C2)c2sccc2n1)c1cncc(F)c1 [Example Z607, (S)—N-(1-(2-((1-(5-Fluoropyridin-3-yl)ethyl)amino)thieno[3,2-d]pyrimidine-4-carbonyl)azetidin-3-yl)oxetane-3-carboxamide] | 50 to 100 | > 500 | 4.49 | 10 to 50 | > 500
3 | C[C@H](Nc1nc(C(=O)N2CC(NC(=O)NC3CCC3)C2)c2sccc2n1)c1cncc(F)c1 [Example Z623, (S)-1-Cyclobutyl-3-(1-(2-((1-(5-fluoropyridin-3-yl)ethyl)amino)thieno[3,2-d]pyrimidine-4-carbonyl)azetidin-3-yl)urea] | < 10 | > 500 | 0.95 | < 10 | 100 to 500
4 | C[C@H](Nc1nc(C(=O)N2CC(NC(=O)C34CC5CC(CC(C5)C3)C4)C2)c2sccc2n1)c1cncc(F)c1 [Example Z631, (3S,5S,7S)—N-(1-(2-(((S)-1-(5-Fluoropyridin-3-yl)ethyl)amino)thieno[3,2-d]pyrimidine-4-carbonyl)azetidin-3-yl)adamantane-1-carboxamide] | < 10 | > 500 | 0.09 | 10 to 50 | 10 to 50
5 | C[C@H](Nc1nc(C(=O)N2CC(NC(=O)c3ccoc3)C2)c2sccc2n1)c1cncc(F)c1 [Example Z600, (S)—N-(1-(2-((1-(5-Fluoropyridin-3-yl)ethyl)amino)thieno[3,2-d]pyrimidine-4-carbonyl)azetidin-3-yl)furan-3-carboxamide] | 10 to 50 | > 500 | 1.90 | < 10 | 100 to 500
6 | C[C@H](Nc1nc(C(=O)N2CC(NC(=O)C(C)(C)C)C2)c2sccc2n1)c1cncc(Cl)c1 [Example Z642, (S)—N-(1-(2-((1-(5-Chloropyridin-3-yl)ethyl)amino)thieno[3,2-d]pyrimidine-4-carbonyl)azetidin-3-yl)pivalamide] | < 10 | > 500 | 0.57 | 10 to 50 | 100 to 500
7 | C[C@H](Nc1nc(C(=O)N2CC(NC(=O)C3(C(F)(F)F)CCC3)C2)c2sccc2n1)c1cncc(F)c1 [Example Z643, (S)—N-(1-(2-((1-(5-Fluoropyridin-3-yl)ethyl)amino)thieno[3,2-d]pyrimidine-4-carbonyl)azetidin-3-yl)-1-(trifluoromethyl)cyclobutane-1-carboxamide] | < 10 | > 500 | 0.19 | 10 to 50 | 100 to 500
8 | C[C@H](Nc1nc(C(=O)N2CC(NC(=O)c3ccc(-c4ccccc4)cc3)C2)c2sccc2n1)c1cncc(F)c1 [Example Z645, (S)—N-(1-(2-((1-(5-Fluoropyridin-3-yl)ethyl)amino)thieno[3,2-d]pyrimidine-4-carbonyl)azetidin-3-yl)-[1,1′-biphenyl]-4-carboxamide] | 10 to 50 | > 500 | 0.48 | 50 to 100 | 50 to 100
9 | COc1cccc(C(=O)NC2CN(C(=O)c3nc(N[C@@H](C)c4cncc(F)c4)nc4ccsc34)C2)c1 [Example Z635, (S)—N-(1-(2-((1-(5-Fluoropyridin-3-yl)ethyl)amino)thieno[3,2-d]pyrimidine-4-carbonyl)azetidin-3-yl)-3-methoxybenzamide] | 10 to 50 | > 500 | 2.06 | 10 to 50 | 100 to 500
10 | C[C@H](Nc1nc(C(=O)N2CC(NC(=O)c3cccc(C(F)(F)F)c3)C2)c2sccc2n1)c1cncc(F)c1 [Example Z633, (S)—N-(1-(2-((1-(5-Fluoropyridin-3-yl)ethyl)amino)thieno[3,2-d]pyrimidine-4-carbonyl)azetidin-3-yl)-3-(trifluoromethyl)benzamide] | 10 to 50 | > 500 | 1.62 | < 10 | 100 to 500
11 | C[C@H](Nc1nc(C(=O)N2CC(NC(=O)C3CCC(F)(F)CC3)C2)c2sccc2n1)c1cncc(F)c1 [Example Z640, (S)-4,4-Difluoro-N-(1-(2-((1-(5-fluoropyridin-3-yl)ethyl)amino)thieno[3,2-d]pyrimidine-4-carbonyl)azetidin-3-yl)cyclohexane-1-carboxamide] | 10 to 50 | > 500 | 1.24 | 10 to 50 | 100 to 500
12 | C[C@H](Nc1nc(C(=O)N2CC(NC(=O)C3(C)CCC3)C2)c2sccc2n1)c1cncc(F)c1 [Example Z627, (S)—N-(1-(2-((1-(5-Fluoropyridin-3-yl)ethyl)amino)thieno[3,2-d]pyrimidine-4-carbonyl)azetidin-3-yl)-1-methylcyclobutane-1-carboxamide] | < 10 | > 500 | 0.15 and 0.25 | 10 to 50 | 100 to 500
13 | C[C@H](Nc1nc(C(=O)N2CC(NC(=O)Nc3ccccc3)C2)c2sccc2n1)c1cncc(F)c1 [Example Z634, (S)-1-(1-(2-((1-(5-Fluoropyridin-3-yl)ethyl)amino)thieno[3,2-d]pyrimidine-4-carbonyl)azetidin-3-yl)-3-phenylurea] | 10 to 50 | > 500 | 2.22 | < 10 | 100 to 500
14 | C[C@H](Nc1nc(C(=O)N2CC(NC(=O)C3CCCCC3)C2)c2sccc2n1)c1cncc(F)c1 [Example Z610, (S)—N-(1-(2-((1-(5-Fluoropyridin-3-yl)ethyl)amino)thieno[3,2-d]pyrimidine-4-carbonyl)azetidin-3-yl)cyclohexanecarboxamide] | < 10 | > 500 | 0.24 | < 10 | 10 to 50
15 | Cc1cc(C(=O)NC2CN(C(=O)c3nc(N[C@@H](C)c4cncc(F)c4)nc4ccsc34)C2)c(C)o1 [Example Z647, (S)—N-(1-(2-((1-(5-Fluoropyridin-3-yl)ethyl)amino)thieno[3,2-d]pyrimidine-4-carbonyl)azetidin-3-yl)-2,5-dimethylfuran-3-carboxamide] | 10 to 50 | > 500 | 1.16 | 10 to 50 | 100 to 500
16 | C[C@H](Nc1nc(C(=O)N2CC(NC(=O)OC3CCCC3)C2)c2sccc2n1)c1cncc(F)c1 [Example Z618, Cyclopentyl (S)-(1-(2-((1-(5-fluoropyridin-3-yl)ethyl)amino)thieno[3,2-d]pyrimidine-4-carbonyl)azetidin-3-yl)carbamate] | 10 to 50 | > 500 | 1.31 | 10 to 50 | 100 to 500
17 | C[C@H](Nc1nc(C(=O)N2CC(NC(=O)c3cccc(F)c3)C2)c2sccc2n1)c1cncc(F)c1 [Example Z613, (S)-3-Fluoro-N-(1-(2-((1-(5-fluoropyridin-3-yl)ethyl)amino)thieno[3,2-d]pyrimidine-4-carbonyl)azetidin-3-yl)benzamide] | < 10 | > 500 | 2.55 | < 10 | 100 to 500
18 | C[C@H](Nc1nc(C(=O)N2CC(NC(=O)C3CCCC3)C2)c2sccc2n1)c1cncc(F)c1 [Example Z605, (S)—N-(1-(2-((1-(5-Fluoropyridin-3-yl)ethyl)amino)thieno[3,2-d]pyrimidine-4-carbonyl)azetidin-3-yl)cyclopentanecarboxamide] | < 10 | > 500 | 0.77 | < 10 | 100 to 500
19 | C[C@H](Nc1nc(C(=O)N2CC(NC(=O)c3cccnc3)C2)c2sccc2n1)c1cncc(F)c1 [Example Z620, (S)—N-(1-(2-((1-(5-Fluoropyridin-3-yl)ethyl)amino)thieno[3,2d]pyrimidine-4-carbonyl)azetidin-3-yl)nicotinamide] | 50 to 100 | > 500 | 3.94 | 10 to 50 | > 500
20 | C[C@H](Nc1nc(C(=O)N2CC(NC(=O)c3ccccc3)C2)c2sccc2n1)c1cncc(F)c1 [Example Z601, (S)—N-(1-(2-((1-(5-Fluoropyridin-3-yl)ethyl)amino)thieno[3,2-d]pyrimidine-4-carbonyl)azetidin-3-yl)benzamide] | 10 to 50 | > 500 | 0.90 | 10 to 50 | 100 to 500
21 | C[C@H](Nc1nc(C(=O)N2CC(C)(NC(=O)C3CC3)C2)c2sccc2n1)c1cncc(F)c1 [Example Z621, (S)—N-(1-(2-((1-(5-Fluoropyridin-3-yl)ethyl)amino)thieno[3,2-d]pyrimidine-4-carbonyl)-3-methylazetidin-3-yl)cyclopropanecarboxamide] | 50 to 100 | > 500 | 1.86 | 10 to 50 | < 10
22 | C[C@H](Nc1nc(C(=O)N2CC(NC(=O)C34CC(C3)C4)C2)c2sccc2n1)c1cncc(F)c1 [Example Z604, (S)—N-(1-(2-((1-(5-Fluoropyridin-3-yl)ethyl)amino)thieno[3,2-d]pyrimidine-4-carbonyl)azetidin-3-yl)bicyclo[1.1.1]pentane-1-carboxamide] | < 10 | > 500 | 0.88 | < 10 | 100 to 500
